Assay results: paper PMC5218480 (PLoS ONE, 2017)

System: MV-4-11 cells
Test: Gene expression microarray analysis (Affymetrix PrimeView) and GSEA
Assay type: cell-based, human
Parameters: RFU PODN (11730768_x_at) / Fold change /veh PODN (11730768_x_at) / RFU LINC00158 (11744669_a_at) / Fold change /veh LINC00158 (11744669_a_at) / RFU DUSP10 (11751237_a_at) / Fold change /veh DUSP10 (11751237_a_at) / RFU ID3 (11757404_x_at) / Fold change /veh ID3 (11757404_x_at) / RFU PLEKHG5 (11737974_s_at) / Fold change /veh PLEKHG5 (11737974_s_at) / RFU LRRC4B (11730491_at) / Fold change /veh LRRC4B (11730491_at) / RFU GIMAP4 (11747438_a_at) / Fold change /veh GIMAP4 (11747438_a_at) / RFU KRT8 (11758183_x_at) / Fold change /veh KRT8 (11758183_x_at) / RFU CNN1 (11734310_a_at) / Fold change /veh CNN1 (11734310_a_at) / RFU VPS37D (11726825_at) / Fold change /veh VPS37D (11726825_at) / RFU C10orf10 (11716522_x_at) / Fold change /veh C10orf10 (11716522_x_at) / RFU KIR2DL2 /// KIR2DL4 /// KIR2DL5A /// KIR2DL5B /// KIR2DS1 /// KIR2DS2 /// KIR2DS3 /// KIR2DS4 /// KIR3DL3 /// KIR3DL3 /// KIR3DS1 (11738374_at) / Fold change /veh KIR2DL2 /// KIR2DL4 /// KIR2DL5A /// KIR2DL5B /// KIR2DS1 /// KIR2DS2 /// KIR2DS3 /// KIR2DS4 /// KIR3DL3 /// KIR3DL3 /// KIR3DS1 (11738374_at) / RFU C1QL1 (11718748_at) / Fold change /veh C1QL1 (11718748_at) / RFU TMPRSS4 (11747572_a_at) / Fold change /veh TMPRSS4 (11747572_a_at) / RFU HAMP (11756126_x_at) / Fold change /veh HAMP (11756126_x_at) / RFU RNFT2 (11725882_a_at) / Fold change /veh RNFT2 (11725882_a_at) / RFU NR4A2 (11747474_a_at) / Fold change /veh NR4A2 (11747474_a_at) / RFU ABCC12 (11746883_a_at) / Fold change /veh ABCC12 (11746883_a_at) / RFU TMEM136 (11760407_x_at) / Fold change /veh TMEM136 (11760407_x_at) / RFU CLDN22 /// WWC2 (11732394_at) / Fold change /veh CLDN22 /// WWC2 (11732394_at) / RFU HLA-DPB1 (11760878_x_at) / Fold change /veh HLA-DPB1 (11760878_x_at) / RFU SPINT1 (11716480_a_at) / Fold change /veh SPINT1 (11716480_a_at) / RFU GAP43 (11754022_s_at) / Fold change /veh GAP43 (11754022_s_at) / RFU A4GNT (11735810_at) / Fold change /veh A4GNT (11735810_at) / RFU PRB3 (11715151_x_at) / Fold change /veh PRB3 (11715151_x_at) / RFU TUBB4B (11761932_at) / Fold change /veh TUBB4B (11761932_at) / RFU CAPN14 (11732068_a_at) / Fold change /veh CAPN14 (11732068_a_at) / RFU TMCC2 (11721928_a_at) / Fold change /veh TMCC2 (11721928_a_at) / RFU IRGQ (11745062_a_at) / Fold change /veh IRGQ (11745062_a_at) / RFU FAM174B (11720279_a_at) / Fold change /veh FAM174B (11720279_a_at) / RFU TMPRSS4 (11748680_a_at) / Fold change /veh TMPRSS4 (11748680_a_at) / RFU FAM212B (11763350_a_at) / Fold change /veh FAM212B (11763350_a_at) / RFU PLEKHG5 (11743358_a_at) / Fold change /veh PLEKHG5 (11743358_a_at) / RFU ZSCAN30 (11745921_a_at) / Fold change /veh ZSCAN30 (11745921_a_at) / RFU CMKLR1 (11741424_a_at) / Fold change /veh CMKLR1 (11741424_a_at) / RFU LOC101060620 /// MAPK8IP1 (11723275_at) / Fold change /veh LOC101060620 /// MAPK8IP1 (11723275_at) / RFU SPTSSB (11747773_x_at) / Fold change /veh SPTSSB (11747773_x_at) / RFU PRSS12 (11739890_at) / Fold change /veh PRSS12 (11739890_at) / RFU BIN1 (11741810_x_at) / Fold change /veh BIN1 (11741810_x_at) / RFU WNT11 (11732464_a_at) / Fold change /veh WNT11 (11732464_a_at) / RFU C10orf10 (11716521_a_at) / Fold change /veh C10orf10 (11716521_a_at) / RFU C5orf56 (11738089_at) / Fold change /veh C5orf56 (11738089_at) / RFU CYB561 (11721691_x_at) / Fold change /veh CYB561 (11721691_x_at) / RFU ANKRD19P (11752326_a_at) / Fold change /veh ANKRD19P (11752326_a_at) / RFU OR2T12 /// OR2T33 /// OR2T8 (11738714_s_at) / Fold change /veh OR2T12 /// OR2T33 /// OR2T8 (11738714_s_at) / RFU VCAN (11748164_a_at) / Fold change /veh VCAN (11748164_a_at) / RFU JSRP1 (11732532_at) / Fold change /veh JSRP1 (11732532_at) / RFU KRTAP10-11 (11738290_x_at) / Fold change /veh KRTAP10-11 (11738290_x_at) / RFU MYO3A (11730013_a_at) / Fold change /veh MYO3A (11730013_a_at) / RFU EBF3 (11725865_a_at) / Fold change /veh EBF3 (11725865_a_at) / RFU CAMK2N1 (11719241_x_at) / Fold change /veh CAMK2N1 (11719241_x_at) / RFU C5orf56 (11738088_a_at) / Fold change /veh C5orf56 (11738088_a_at) / RFU OLFML3 (11715873_a_at) / Fold change /veh OLFML3 (11715873_a_at) / RFU LOC100653217 /// NTM (11731650_a_at) / Fold change /veh LOC100653217 /// NTM (11731650_a_at) / RFU MAPK11 (11762145_a_at) / Fold change /veh MAPK11 (11762145_a_at) / RFU FIZ1 (11724087_x_at) / Fold change /veh FIZ1 (11724087_x_at) / RFU OASL (11726364_x_at) / Fold change /veh OASL (11726364_x_at) / RFU SOX15 (11748057_x_at) / Fold change /veh SOX15 (11748057_x_at) / RFU CD79A (11719716_a_at) / Fold change /veh CD79A (11719716_a_at) / RFU HIST1H1D (11736915_at) / Fold change /veh HIST1H1D (11736915_at) / RFU CASKIN2 (11723855_a_at) / Fold change /veh CASKIN2 (11723855_a_at) / RFU LOC730098 (11760151_x_at) / Fold change /veh LOC730098 (11760151_x_at) / RFU OR4N2 (11742367_at) / Fold change /veh OR4N2 (11742367_at) / RFU PRRT2 (11749266_a_at) / Fold change /veh PRRT2 (11749266_a_at) / RFU SNX32 (11753110_a_at) / Fold change /veh SNX32 (11753110_a_at) / RFU CDHR5 (11726645_a_at) / Fold change /veh CDHR5 (11726645_a_at) / RFU RCAN1 (11760418_a_at) / Fold change /veh RCAN1 (11760418_a_at) / RFU FAM167A (11723789_a_at) / Fold change /veh FAM167A (11723789_a_at) / RFU FAM26E (11764081_at) / Fold change /veh FAM26E (11764081_at) / RFU ISYNA1 (11749810_s_at) / Fold change /veh ISYNA1 (11749810_s_at) / RFU ACY1 (11761880_at) / Fold change /veh ACY1 (11761880_at) / RFU 11764098_at / Fold change /veh 11764098_at / RFU SAMD14 (11745864_x_at) / Fold change /veh SAMD14 (11745864_x_at) / RFU NPB (11741838_a_at) / Fold change /veh NPB (11741838_a_at) / RFU TMPRSS6 (11731388_a_at) / Fold change /veh TMPRSS6 (11731388_a_at) / RFU KRTAP10-2 (11738614_at) / Fold change /veh KRTAP10-2 (11738614_at) / RFU ARHGAP8 /// PRR5-ARHGAP8 (11727945_x_at) / Fold change /veh ARHGAP8 /// PRR5-ARHGAP8 (11727945_x_at) / RFU KRTAP5-7 /// NADSYN1 (11734609_at) / Fold change /veh KRTAP5-7 /// NADSYN1 (11734609_at) / RFU RASL12 (11751679_a_at) / Fold change /veh RASL12 (11751679_a_at) / RFU CDKN2B (11736163_a_at) / Fold change /veh CDKN2B (11736163_a_at) / RFU PRF1 (11729649_at) / Fold change /veh PRF1 (11729649_at) / RFU, ZNF638 /// ZNF638-IT1 / Fold change vs veh, ZNF638 /// ZNF638-IT1 / RFU, PANK3 / Fold change vs veh, PANK3 / RFU, SH3YL1 / Fold change vs veh, SH3YL1 / RFU, ZEB2 / Fold change vs veh, ZEB2 / RFU, NRIP1 / Fold change vs veh, NRIP1 / RFU, PTTG1IP / Fold change vs veh, PTTG1IP / RFU, CAPN2 / Fold change vs veh, CAPN2 / RFU, MED14 / Fold change vs veh, MED14 / RFU, SNORA58 / Fold change vs veh, SNORA58 / RFU, C1orf63 / Fold change vs veh, C1orf63 / RFU, LRRFIP1 / Fold change vs veh, LRRFIP1 / RFU, NDUFAF7 / Fold change vs veh, NDUFAF7 / RFU, SLC12A2 / Fold change vs veh, SLC12A2 / RFU, IBTK / Fold change vs veh, IBTK / RFU, ESF1 / Fold change vs veh, ESF1 / Fold change vs veh, TMEM50B / RFU, TAOK1 / Fold change vs veh, TAOK1 / RFU, ACBD3 / Fold change vs veh, ACBD3 / RFU, TMA16 / Fold change vs veh, TMA16 / RFU, RWDD3 / Fold change vs veh, RWDD3 / RFU, BCAT1 / Fold change vs veh, BCAT1 / RFU, EDEM3 / Fold change vs veh, EDEM3 / RFU, TMEM33 / Fold change vs veh, TMEM33 / RFU, WDR75 / Fold change vs veh, WDR75 / RFU, AHCTF1 / Fold change vs veh, AHCTF1 / RFU, TFRC / Fold change vs veh, TFRC / RFU, ZDHHC17 / Fold change vs veh, ZDHHC17 / RFU, NOM1 / Fold change vs veh, NOM1 / RFU, ARL8B / Fold change vs veh, ARL8B / RFU, ZBTB11 / Fold change vs veh, ZBTB11 / RFU, TAMM41 / Fold change vs veh, TAMM41 / RFU, KIAA1704 /// LOC100996395 / Fold change vs veh, KIAA1704 /// LOC100996395 / RFU, ING1 / Fold change vs veh, ING1 / RFU, TRMT61B / Fold change vs veh, TRMT61B / RFU, FUBP3 / Fold change vs veh, FUBP3 / RFU, TP53 / Fold change vs veh, TP53 / RFU, TNKS2 / Fold change vs veh, TNKS2 / RFU, ZFP14 / Fold change vs veh, ZFP14 / RFU, ACTR2 / Fold change vs veh, ACTR2 / RFU, PPP3R1 / Fold change vs veh, PPP3R1 / RFU, PIK3R1 / Fold change vs veh, PIK3R1 / RFU, HNRNPA1 / Fold change vs veh, HNRNPA1 / RFU, RNF170 / Fold change vs veh, RNF170 / RFU, ZNF28 / Fold change vs veh, ZNF28 / RFU, RNGTT / Fold change vs veh, RNGTT / RFU, OGT / Fold change vs veh, OGT / RFU, BRD1 / Fold change vs veh, BRD1 / RFU, MARS / Fold change vs veh, MARS / RFU, ZNF655 / Fold change vs veh, ZNF655 / RFU, FAHD1 / Fold change vs veh, FAHD1 / RFU, BDP1 / Fold change vs veh, BDP1 / RFU, LRRCC1 / Fold change vs veh, LRRCC1 / RFU, ARID1A / Fold change vs veh, ARID1A / RFU, ZNF146 / Fold change vs veh, ZNF146 / RFU, ZNF330 / Fold change vs veh, ZNF330 / RFU, GPN3 / Fold change vs veh, GPN3 / RFU, C9orf123 / Fold change vs veh, C9orf123 / RFU, N4BP2L2 / Fold change vs veh, N4BP2L2 / RFU, ARFIP1 / Fold change vs veh, ARFIP1 / RFU, FAM179B / Fold change vs veh, FAM179B / RFU, BCL10 / Fold change vs veh, BCL10 / RFU, UHRF1BP1L / Fold change vs veh, UHRF1BP1L / RFU, BET1 / Fold change vs veh, BET1 / RFU, CNOT2 / Fold change vs veh, CNOT2 / RFU, ZNF268 / Fold change vs veh, ZNF268 / Fold change vs veh, ZNF507 / RFU, DGCR2 / Fold change vs veh, DGCR2 / RFU, WDSUB1 / Fold change vs veh, WDSUB1 / Fold change vs veh, HSP90B1 /// MIR3652 / RFU, ADSS / Fold change vs veh, ADSS / RFU, GK / Fold change vs veh, GK / RFU, ZNF148 / Fold change vs veh, ZNF148 / RFU, TAF9 / Fold change vs veh, TAF9 / RFU, SLC1A5 / Fold change vs veh, SLC1A5 / RFU, SLMO2 / Fold change vs veh, SLMO2 / RFU, ABCC4 / Fold change vs veh, ABCC4 / RFU, LOC101060439 /// RAP1B / Fold change vs veh, LOC101060439 /// RAP1B / RFU, RFX7 / Fold change vs veh, RFX7 / RFU, GTPBP10 / Fold change vs veh, GTPBP10 / RFU, CNEP1R1 / Fold change vs veh, CNEP1R1 / RFU, BIVM-ERCC5 /// ERCC5 / Fold change vs veh, BIVM-ERCC5 /// ERCC5 / RFU, ILF3 / Fold change vs veh, ILF3 / RFU 11762660_at / Fold change /veh 11762660_at / RFU VCAN (11757783_s_at) / Fold change /veh VCAN (11757783_s_at) / RFU DDX43 (11728927_at) / Fold change /veh DDX43 (11728927_at) / RFU KRT8 (11758188_x_at) / Fold change /veh KRT8 (11758188_x_at) / RFU NKD1 (11759106_at) / Fold change /veh NKD1 (11759106_at) / RFU SRD5A1 (11742802_a_at) / Fold change /veh SRD5A1 (11742802_a_at) / RFU TPSAB1 /// TPSB2 (11721975_s_at) / Fold change /veh TPSAB1 /// TPSB2 (11721975_s_at) / RFU GSTM3 (11746129_a_at) / Fold change /veh GSTM3 (11746129_a_at) / RFU IL23R (11737362_x_at) / Fold change /veh IL23R (11737362_x_at) / RFU TMEM51 (11727254_a_at) / Fold change /veh TMEM51 (11727254_a_at) / RFU PIWIL2 (11732686_x_at) / Fold change /veh PIWIL2 (11732686_x_at) / RFU ORM1 (11744905_x_at) / Fold change /veh ORM1 (11744905_x_at) / RFU CCDC152 (11743942_at) / Fold change /veh CCDC152 (11743942_at) / RFU ECM1 (11717891_a_at) / Fold change /veh ECM1 (11717891_a_at) / RFU IL23R (11748794_a_at) / Fold change /veh IL23R (11748794_a_at) / RFU TNFAIP8L3 (11732012_x_at) / Fold change /veh TNFAIP8L3 (11732012_x_at) / RFU MBOAT4 (11741988_at) / Fold change /veh MBOAT4 (11741988_at) / RFU 11764193_at / Fold change /veh 11764193_at / RFU TMEM53 (11763286_at) / Fold change /veh TMEM53 (11763286_at) / RFU MAGEB2 (11727129_at) / Fold change /veh MAGEB2 (11727129_at) / RFU TMEM200A (11744735_a_at) / Fold change /veh TMEM200A (11744735_a_at) / RFU CCDC152 (11751479_a_at) / Fold change /veh CCDC152 (11751479_a_at) / RFU FAM211A (11726209_a_at) / Fold change /veh FAM211A (11726209_a_at) / RFU RGS16 (11746705_a_at) / Fold change /veh RGS16 (11746705_a_at) / RFU VCAN (11755009_s_at) / Fold change /veh VCAN (11755009_s_at) / RFU RHOB (11743442_s_at) / Fold change /veh RHOB (11743442_s_at) / RFU RGS16 (11720943_a_at) / Fold change /veh RGS16 (11720943_a_at) / RFU RGS16 (11720944_at) / Fold change /veh RGS16 (11720944_at) / RFU, VPS4B / Fold change vs veh, VPS4B / RFU, CREB1 / Fold change vs veh, CREB1 / RFU, DNAJC13 / Fold change vs veh, DNAJC13 / RFU, GNAQ / Fold change vs veh, GNAQ / RFU, CDK5R1 / Fold change vs veh, CDK5R1 / RFU, ZRANB3 / Fold change vs veh, ZRANB3 / RFU, CUL4A / Fold change vs veh, CUL4A / RFU, CCNY / Fold change vs veh, CCNY / RFU, UFL1 / Fold change vs veh, UFL1 / RFU, COG3 / Fold change vs veh, COG3 / RFU, DIAPH2 / Fold change vs veh, DIAPH2 / RFU, SKA2 / Fold change vs veh, SKA2 / RFU, AFF3 / Fold change vs veh, AFF3 / RFU, LMF1 / Fold change vs veh, LMF1 / RFU, IPO11 / Fold change vs veh, IPO11 / RFU, DFFB / Fold change vs veh, DFFB / RFU, FOXP1 / Fold change vs veh, FOXP1 / RFU, CARD8 / Fold change vs veh, CARD8 / RFU, STRN3 / Fold change vs veh, STRN3 / RFU, ADK / Fold change vs veh, ADK / RFU, RASSF2 / Fold change vs veh, RASSF2 / RFU, WIPF1 / Fold change vs veh, WIPF1 / RFU, LARP1B / Fold change vs veh, LARP1B / RFU, RASA1 / Fold change vs veh, RASA1 / RFU, RB1 / Fold change vs veh, RB1 / RFU, PPFIA1 / Fold change vs veh, PPFIA1 / RFU, MAT2A / Fold change vs veh, MAT2A / RFU, CCT5 / Fold change vs veh, CCT5 / RFU, WDR92 / Fold change vs veh, WDR92 / RFU, CUX1 / Fold change vs veh, CUX1 / RFU, TTC7A / Fold change vs veh, TTC7A / RFU, TMEM135 / Fold change vs veh, TMEM135 / RFU, DEPTOR / Fold change vs veh, DEPTOR / RFU, CPM / Fold change vs veh, CPM / RFU, DNAJB6 / Fold change vs veh, DNAJB6 / RFU, CACNA2D3 / Fold change vs veh, CACNA2D3 / RFU, DTX4 / Fold change vs veh, DTX4 / RFU, TFCP2 / Fold change vs veh, TFCP2 / RFU, GMCL1 /// GMCL1P1 / Fold change vs veh, GMCL1 /// GMCL1P1 / RFU, AEBP2 / Fold change vs veh, AEBP2 / RFU, SNHG1 /// SNORD22 /// SNORD25 /// SNORD26 /// SNORD27 /// SNORD28 /// SNORD29 /// SNORD31 / Fold change vs veh, SNHG1 /// SNORD22 /// SNORD25 /// SNORD26 /// SNORD27 /// SNORD28 /// SNORD29 /// SNORD31 / Fold change (Aza/veh), C12orf56 (ProbeSet 11735607_a_at) / Fold change (ACY-1035/veh), C12orf56 (ProbeSet 11735607_a_at) / Fold change (Aza/veh), FGFR1OP (ProbeSet 11751329_s_at) / Fold change (ACY-1035/veh), FGFR1OP (ProbeSet 11751329_s_at) / Fold change (Aza/veh), VPS36 (ProbeSet 11739960_a_at) / Fold change (ACY-1035/veh), VPS36 (ProbeSet 11739960_a_at) / RFU SYPL1 (11715823_x_at) / Fold change /veh SYPL1 (11715823_x_at) / RFU IGFBP7 (11715501_s_at) / Fold change /veh IGFBP7 (11715501_s_at) / RFU REEP3 (11722064_at) / Fold change /veh REEP3 (11722064_at) / RFU IGLL1 (11728026_x_at) / Fold change /veh IGLL1 (11728026_x_at): dose or concentration left out as unconfirmed
Conditions: ProbeSet 11716865_a_at; LIST B

Nc1ncn([C@@H]2O[C@H](CO)[C@@H](O)[C@H]2O)c(=O)n1 [azacitidine]
RFU, SLC1A5: 258.33 RFU
